# Measurements from PubChem BioAssay (NCI).
#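 48-hour exposure; five concentrations; linearly interpolated endpoints. TGI is the concentration that stops growth completely.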
# How the values were obtained:
# Assay in all cases: NCI tumour cell line growth inhibition, 48 h
# [1] = system: PC-3 prostate
# [2] = system: SW-620 colon
# [3] = system: CCRF-CEM leukemia
# [4] = system: HCT-116 colon
# [5] = system: 786-0 renal
# [6] = system: A549 NSCLC
# [7] = system: SNB-19 CNS
# [8] = system: HT29 colon
# [9] = system: HCC-2998 colon
# [10] = system: CAKI-1 renal
# [11] = system: BT-549 breast
# [12] = system: HS 578T breast
# [13] = system: OVCAR-3 ovarian
# [14] = system: K-562 leukemia
# [15] = system: SF-268 CNS
# [16] = system: MCF7 breast
# [17] = system: TK-10 renal
smiles,measurement,setting,value
C[C@@H]1C[C@H]2OC(=O)[C@@]3(C)CCC[C@@](C)([C@@H]23)[C@@]1(O)CCc1ccoc1,TGI,[1],> 100 µM
same,TGI,[2],> 100 µM
same,TGI,[3],> 100 µM
same,TGI,[4],> 100 µM
same,TGI,[5],> 100 µM
same,TGI,[6],> 100 µM
same,TGI,[7],> 100 µM
same,TGI,[8],> 100 µM
same,TGI,[9],> 100 µM
same,TGI,[10],> 100 µM
same,TGI,[11],> 100 µM
same,TGI,[12],> 100 µM
same,TGI,[13],> 100 µM
same,TGI,[14],> 100 µM
same,TGI,[15],> 100 µM
same,TGI,[16],> 100 µM
same,TGI,[17],> 100 µM
CC(=O)Nc1ccc(NC(=O)CC(=O)Nc2ccc(NC(C)=O)cc2)cc1,TGI,[1],> 100 µM
same,TGI,[2],> 100 µM
same,TGI,[3],> 100 µM
same,TGI,[4],> 100 µM
same,TGI,[5],> 100 µM
same,TGI,[6],> 100 µM
same,TGI,[7],> 100 µM
same,TGI,[8],> 100 µM
same,TGI,[9],36.7 µM
same,TGI,[10],> 100 µM
same,TGI,[11],> 100 µM
same,TGI,[12],> 100 µM
same,TGI,[13],> 100 µM
same,TGI,[14],> 100 µM
same,TGI,[15],> 100 µM
same,TGI,[16],> 100 µM
same,TGI,[17],> 100 µM
CN(C)CCCNC(=O)N/N=C/c1ccc(O)cc1,TGI,[1],> 100 µM
same,TGI,[2],> 100 µM
same,TGI,[3],> 100 µM
same,TGI,[4],> 100 µM
same,TGI,[5],> 100 µM
same,TGI,[6],> 100 µM
same,TGI,[7],> 100 µM
same,TGI,[8],> 100 µM
same,TGI,[9],> 100 µM
same,TGI,[10],> 100 µM
same,TGI,[11],> 100 µM
same,TGI,[12],> 100 µM
same,TGI,[13],> 100 µM
same,TGI,[14],> 100 µM
same,TGI,[15],> 100 µM
same,TGI,[16],> 100 µM
same,TGI,[17],> 100 µM
O=C(N/N=C(/COc1ccccc1)N=Cc1ccncc1)c1ccncc1,TGI,[1],> 100 µM
same,TGI,[2],> 100 µM
same,TGI,[3],> 100 µM
same,TGI,[4],> 100 µM
same,TGI,[5],> 100 µM
same,TGI,[6],> 100 µM
same,TGI,[7],> 100 µM
same,TGI,[8],> 100 µM
same,TGI,[9],> 100 µM
same,TGI,[10],> 100 µM
same,TGI,[11],> 100 µM
same,TGI,[12],> 100 µM
same,TGI,[13],> 100 µM
same,TGI,[14],> 100 µM
same,TGI,[15],> 100 µM
same,TGI,[16],> 100 µM
same,TGI,[17],> 100 µM
C=C1C(=O)OC2C1CCC(=C)C1CC(O)C(=C)C12 (stereo not given),TGI,[1],28 µM
same,TGI,[2],43.6 µM
same,TGI,[3],7.44 µM
same,TGI,[4],26.4 µM
same,TGI,[5],19.6 µM
same,TGI,[6],55.7 µM
same,TGI,[7],66.6 µM
same,TGI,[8],19.3 µM
same,TGI,[9],27.9 µM
same,TGI,[10],9.78 µM
same,TGI,[11],30.4 µM
same,TGI,[12],> 100 µM
same,TGI,[13],27.9 µM
same,TGI,[14],21.4 µM
same,TGI,[15],31.7 µM
same,TGI,[16],25.5 µM
same,TGI,[17],20.6 µM
